# Test results as given in article PMC4970445, “Multiple active site residues are important for photochemical efficiency in the light-activated enzyme protochlorophyllide oxidoreductase (POR)^” (Journal of Photochemistry and Photobiology. B, Biology, 2016).
# What was measured:
# Assay in all cases: FRET from protein Trp to bound NADPH
# Assay type in all cases: binding
# [1] = target: T1, protochlorophyllide oxidoreductase (POR) (Thermosynechococcus vestitus, UniProt Q8DLC1, R38V)
# T1 construct: recombinant, overexpressed in Escherichia coli, purified as in earlier work
# Excerpt: (§1) FRET from protein Trp to bound NADPH on protochlorophyllide oxidoreductase (POR)
# [2] = target: T2, protochlorophyllide oxidoreductase (POR) (Thermosynechococcus vestitus, UniProt Q8DLC1, S16C)
# T2 construct: recombinant, overexpressed in Escherichia coli, purified as in earlier work
# Excerpt: as §1
# [3] = target: T3, protochlorophyllide oxidoreductase (POR) (Thermosynechococcus vestitus, UniProt Q8DLC1, G19A)
# T3 construct: recombinant, overexpressed in Escherichia coli, purified as in earlier work
# Excerpt: as §1
# [4] = target: T4, protochlorophyllide oxidoreductase (POR) (Thermosynechococcus vestitus, UniProt Q8DLC1, K42A)
# T4 construct: recombinant, overexpressed in Escherichia coli, purified as in earlier work
# Excerpt: as §1
# [5] = target: T5, protochlorophyllide oxidoreductase (POR) (Thermosynechococcus vestitus, UniProt Q8DLC1)
# T5 construct: recombinant, overexpressed in Escherichia coli, purified as in earlier work
# Excerpt: as §1
# [6] = target: T6, protochlorophyllide oxidoreductase (POR) (Thermosynechococcus vestitus, UniProt Q8DLC1, T230F)
# T6 construct: recombinant, overexpressed in Escherichia coli, purified as in earlier work
# Excerpt: as §1
# T1 sequence (Q8DLC1 entry or part of it R38V): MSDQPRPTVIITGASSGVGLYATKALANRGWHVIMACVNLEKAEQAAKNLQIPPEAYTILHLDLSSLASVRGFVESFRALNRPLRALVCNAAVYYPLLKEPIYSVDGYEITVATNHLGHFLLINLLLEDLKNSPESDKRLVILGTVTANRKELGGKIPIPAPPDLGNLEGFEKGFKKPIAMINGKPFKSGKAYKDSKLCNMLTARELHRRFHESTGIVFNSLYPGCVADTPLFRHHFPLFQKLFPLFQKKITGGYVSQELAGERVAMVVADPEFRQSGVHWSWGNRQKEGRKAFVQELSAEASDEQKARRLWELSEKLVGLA
# T3 sequence (Q8DLC1 entry or part of it G19A): as the sequence (Q8DLC1 entry or part of it R38V) above, with G19A, V38R counted along it
# T4 sequence (Q8DLC1 entry or part of it K42A): as the sequence (Q8DLC1 entry or part of it R38V) above, with V38R, K42A counted along it
# T5 sequence (Q8DLC1 1-322): as the sequence (Q8DLC1 entry or part of it R38V) above, with V38R counted along it
# T6 sequence (Q8DLC1 entry or part of it T230F): as the sequence (Q8DLC1 entry or part of it R38V) above, with V38R, T230F counted along it
# T2 sequence (Q8DLC1 entry or part of it S16C): as the sequence (Q8DLC1 entry or part of it R38V) above, with S16C, V38R counted along it
smiles,measurement,setting,value
NC(=O)C1=CN([C@@H]2O[C@H](COP(=O)(O)OP(=O)(O)OC[C@H]3O[C@@H](n4cnc5c(N)ncnc54)[C@H](OP(=O)(O)O)[C@@H]3O)[C@@H](O)[C@H]2O)C=CC1 [NADPH],Kd,[1],411 ± 76 nM
same,Kd,[2],325 ± 90 nM
same,Kd,[3],182 ± 31 nM
same,Kd,[4],230 ± 81 nM
same,Kd,[5],21 ± 1 nM
same,Kd,[6],436 ± 87 nM
